Measurements taken from patent EP2979694B1, “Dimercaptosuccinic acid for the treatment of multidrug resistant bacterial infections” (priority 2014, dated 2016).

Legend:
Assay in all cases: MIC of carbapenems with or without DMSA
K.p. KIE = assay type: cell-based, K. pneumoniae; details: NDM-1 + SHV-38 + CMY-16 + OXA-10, no DMSA, unit assumed
Protocol: (§1) Minimum inhibitory concentrations (MICs) of carbapenems were determined in-vitro with strains (reference and clinical) producing the three main types of class B carbapenemases which are IMP, VIM and NDM, with or without EDTA and DMSA.
(§2) MICs of imipenem was determined for E. coli TOP10 pCR2.1-(PNDM-1-blaNDM-1-bleMBL) in the presence of 0, 0.01, 0.1 or 1 mg/ml of Ca-EDTA or DMSA by using the broth microdilution method in zinc-complemented M9CA minimum medium (SD7025, Euromedex, France).
(§3) A 100 mM DMSA stock solution (Sigma Aldrich, France) (pH 5.0) was prepared in 0.2 M NaOH as recommended (Maiorino et al. 1990) and pH was neutralized to pH 7.0 with NaHCO3 Na2Ca-EDTA (Sigma Aldrich, France) dissolved in water.
(§4) The strains were as follows: VIM producers (n=10), IMP producers (n=9), NDM-1 producers (n=10). The selected concentration of DMSA was 10-fold (0.3 mM) and 100-fold (3 mM) that of the human peak serum concentration after oral administration (Asiedu et al;, 1995), and that of Ca-EDTA was assayed at the fixed concentration of 0.2 mM (Table 2). […]

K.p. 0709124 = assay type: cell-based, K. pneumoniae; details: K.p. 0709124, IMP-1b + TEM-15; no DMSA; unit assumed
Protocol: as §1, §2, §3, §4

K.p. TAW = assay type: cell-based, K. pneumoniae; details: IMP-8 + SHV-5, no DMSA, unit assumed
Protocol: as §1, §2, §3, §4

K.p. ROUM = assay type: cell-based, K. pneumoniae; details: VIM, no DMSA, unit assumed
Protocol: as §1, §2, §3, §4

K.p. OMA1 = assay type: cell-based, K. pneumoniae; details: K.p. OMA1, NDM-1 + TEM-1 +CTX-M-15+ SHV-28 + OXA-1 + OXA-9; no DMSA; unit assumed
Protocol: as §1, §2, §3, §4

K.p. 6852 = assay type: cell-based, K. pneumoniae; details: K.p. 6852, IMP-1 + SHV-5; no DMSA; unit assumed
Protocol: as §1, §2, §3, §4

E. coli FEK = assay type: cell-based; details: NDM-4 + NDM-4 + OXA-1 + CTX-M-15, no DMSA, unit assumed
Protocol: as §1, §2, §3, §4

E. coli 162 = assay type: cell-based; details: E. coli 162, NDM-5 + TEM-1 +CTX-M-15; no DMSA; unit assumed
Protocol: as §1, §2, §3, §4

E. coli IBIS = assay type: cell-based; details: VIM-4, no DMSA, unit assumed
Protocol: as §1, §2, §3, §4

C. freundii MIG = assay type: cell-based; details: VIM-2 + TEM-1 +OXA-9 + OXA-10, no DMSA, unit assumed
Protocol: as §1, §2, §3, §4

E. coli RIC = assay type: cell-based; details: NDM-1 + CMY-16 + OXA-1 + OXA-10, no DMSA, unit assumed
Protocol: as §1, §2, §3, §4

E. coli 0404018 = assay type: cell-based; details: E. coli 0404018, VIM-1 + CMY-6; no DMSA; unit assumed
Protocol: as §1, §2, §3, §4

E. coli IR5 = assay type: cell-based; details: E. coli IR5, NDM-1 + TEM-1 +CTX-M-15; no DMSA; unit assumed
Protocol: as §1, §2, §3, §4

E. coli 1108013 = assay type: cell-based; details: E. coli 1108013, IMP-1 + TEM-1; no DMSA; unit assumed
Protocol: as §1, §2, §3, §4

E. cloacae 1008183 = assay type: cell-based; details: E. cloacae 1008183, IMP-1; no DMSA; unit assumed
Protocol: as §1, §2, §3, §4

E. coli DIH = assay type: cell-based; details: VIM-19, no DMSA, unit assumed
Protocol: as §1, §2, §3, §4

E. coli 1008077 = assay type: cell-based; details: E. coli 1008077, VIM-1 + TEM-3; no DMSA; unit assumed
Protocol: as §1, §2, §3, §4

E. coli 405 = assay type: cell-based; details: E. coli 405, NDM-5 + TEM-1 +CTX-M-15; no DMSA; unit assumed
Protocol: as §1, §2, §3, §4

E. coli BOUN = assay type: cell-based; details: NDM-4 + OXA-1, no DMSA, unit assumed
Protocol: as §1, §2, §3, §4

E. coli COUP = assay type: cell-based; details: NDM-7 + OXA-1 +CTX-M-15, no DMSA, unit assumed
Protocol: as §1, §2, §3, §4

E. cloacae KOW3 = assay type: cell-based; details: E. cloacae KOW3, VIM-1 + CTX-M-15+ TEM-1 + SHV-31; no DMSA; unit assumed
Protocol: as §1, §2, §3, §4

E. coli JAP = assay type: cell-based; details: IMP-1, no DMSA, unit assumed
Protocol: as §1, §2, §3, §4

E. cloacae 1008186 = assay type: cell-based; details: E. cloacae 1008186, IMP-1; no DMSA; unit assumed
Protocol: as §1, §2, §3, §4

E. cloacae TAW = assay type: cell-based; details: IMP-8, no DMSA, unit assumed
Protocol: as §1, §2, §3, §4

E. cloacae 396715 = assay type: cell-based; details: E. cloacae 396715, VIM-1; no DMSA; unit assumed
Protocol: as §1, §2, §3, §4

E. coli MAD = assay type: cell-based; details: VIM-1 + CTX-M-3, no DMSA, unit assumed
Protocol: as §1, §2, §3, §4

E. cloacae 1008029 = assay type: cell-based; details: E. cloacae 1008029, VIM-1 + CTX-M-3; no DMSA; unit assumed
Protocol: as §1, §2, §3, §4

E. cloacae 1008085 = assay type: cell-based; details: E. cloacae 1008085, IMP-1; no DMSA; unit assumed
Protocol: as §1, §2, §3, §4

E. coli ALL = assay type: cell-based; details: NDM-1 + TEM-1 +CTX-M-15+OXA-1 + OXA-2, no DMSA, unit assumed
Protocol: as §1, §2, §3, §4

## C[C@@H](O)[C@H]1C(=O)N2C(C(=O)O)=C(S[C@@H]3CN[C@H](C(=O)Nc4cccc(C(=O)O)c4)C3)[C@H](C)[C@H]12 [ETP, ertapenem]
K.p. KIE
  MIC: 4 µg/mL
K.p. 0709124
  MIC: 32 µg/mL
K.p. TAW
  MIC: 0.5 µg/mL
K.p. ROUM
  MIC: > 32 µg/mL
K.p. OMA1
  MIC: > 32 µg/mL
K.p. 6852
  MIC: > 32 µg/mL
E. coli FEK
  MIC: > 32 µg/mL
E. coli 162
  MIC: > 32 µg/mL
E. coli IBIS
  MIC: 2 µg/mL
C. freundii MIG
  MIC: 2 µg/mL
E. coli RIC
  MIC: 8 µg/mL
E. coli 0404018
  MIC: 4 µg/mL
E. coli IR5
  MIC: 32 µg/mL
E. coli 1108013
  MIC: 32 µg/mL
E. cloacae 1008183
  MIC: 8 µg/mL
E. coli DIH
  MIC: 8 µg/mL
E. coli 1008077
  MIC: > 32 µg/mL
E. coli 405
  MIC: > 32 µg/mL
E. coli BOUN
  MIC: 16 µg/mL
E. coli COUP
  MIC: 32 µg/mL
E. cloacae KOW3
  MIC: > 32 µg/mL
E. coli JAP
  MIC: 0.5 µg/mL
E. cloacae 1008186
  MIC: 32 µg/mL
E. cloacae TAW
  MIC: 4 µg/mL
E. cloacae 396715
  MIC: 2 µg/mL
E. coli MAD
  MIC: 0.25 µg/mL
E. cloacae 1008029
  MIC: > 32 µg/mL
E. cloacae 1008085
  MIC: 8 µg/mL
E. coli ALL
  MIC: 16 µg/mL
